Test systems include SN12C renal; MDA-MB-435; SNB-19 CNS; COLO 205 colon; CCRF-CEM leukemia; LOX IMVI melanoma; SK-MEL-28 melanoma; NCI/ADR-RES ovarian; 786-0 renal; OVCAR-5 ovarian; SF-295 CNS.
Common to all, as to assay: NCI anticancer screen, dose series, 48 h

Each structure is given as a SMILES string. “And” between values parts separate entries of the source, which are not always exact repeats. Equal values may be shown once.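 Each compound was tested at five concentrations against cells in 96-well plates for 48 hours. GI50 marks 50% less growth. TGI denotes the concentration required for complete inhibition of growth.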 Where a SMILES comes first, the peptide text is derived from it. The star is where a group is joined. Fmoc = O=C(OCC1c2ccccc2-c2ccccc21)*; Boc = CC(C)(C)OC(=O)*

In the case of `CN1CCN(c2ccc3nc(-c4ccc5nc(-c6ccc(O)cc6)[nH]c5c4)[nH]c3c2)CC1`, the TGI in the assay with SN12C renal came out at 464 µM; with MDA-MB-435, 217 µM; with SNB-19 CNS, 909 µM; in the assay with COLO 205 colon, 147 µM; with CCRF-CEM leukemia it was 381 µM; with LOX IMVI melanoma, 553 µM. The TGI worked out at 92.3 µM with SK-MEL-28 melanoma; 786 µM in the assay on NCI/ADR-RES ovarian; 941 µM with 786-0 renal; 679 µM in the assay on OVCAR-5 ovarian; 678 µM in the assay on SF-295 CNS. Besides, the GI50 was 41.7 µM with MDA-MB-435; 6.24 µM and 19.5 µM and 6.78 µM in the assay with COLO 205 colon; 12.9 µM (2×) and 15.4 µM with CCRF-CEM leukemia; 18.8 µM in the assay on SK-MEL-28 melanoma; 380 µM in the assay with SF-295 CNS.
As to `O=C1C=C(OCCCCl)C(=O)c2c(O)ccc(O)c21`, the TGI in the assay with SN12C renal was found to be 1.12 µM; in the assay with MDA-MB-435, 0.364 µM; with SNB-19 CNS, 3.55 µM; in the assay with COLO 205 colon it was 0.642 µM; with CCRF-CEM leukemia, 3.75 µM; in the assay with LOX IMVI melanoma it was 0.659 µM. Besides, the TGI is 2.08 µM in the assay on SK-MEL-28 melanoma; 7.3 µM in the assay on NCI/ADR-RES ovarian; 2.94 µM in the assay with 786-0 renal; 2.85 µM with OVCAR-5 ovarian; 3.2 µM with SF-295 CNS.
For the molecule `CCOC(=O)c1c2c(c(O)c3ccccc3c(O)n(Cc3ccccc3)c1C)C(=O)C=CC2=O`, the TGI in the assay with SN12C renal, in the assay on MDA-MB-435, in the assay with SNB-19 CNS, in the assay with COLO 205 colon, in the assay on CCRF-CEM leukemia and with LOX IMVI melanoma was greater than 100 µM each time. Further, the TGI with SK-MEL-28 melanoma, in the assay on NCI/ADR-RES ovarian, in the assay with 786-0 renal, in the assay with OVCAR-5 ovarian and in the assay with SF-295 CNS was greater than 100 µM throughout.
With `CC(OC(=O)C(CC(=O)OC(C)(C)C)NC(=O)OC(C)(C)C)C(=O)OCc1ccccc1` (configuration not stated), the TGI in the assay on SN12C renal, in the assay on MDA-MB-435, in the assay with SNB-19 CNS, in the assay on COLO 205 colon, in the assay with CCRF-CEM leukemia and with LOX IMVI melanoma was greater than 100 µM throughout. Further, the TGI in the assay on SK-MEL-28 melanoma, in the assay with NCI/ADR-RES ovarian, with 786-0 renal, with OVCAR-5 ovarian and in the assay with SF-295 CNS was greater than 100 µM throughout.
For the molecule `OCCOc1ccccc2cccc1-2`, the TGI in the assay on SN12C renal, in the assay on MDA-MB-435, with SNB-19 CNS, with COLO 205 colon, in the assay with CCRF-CEM leukemia and in the assay on LOX IMVI melanoma was greater than 100 µM throughout. Further, the TGI in the assay with SK-MEL-28 melanoma, in the assay on NCI/ADR-RES ovarian, with 786-0 renal, with OVCAR-5 ovarian and in the assay on SF-295 CNS was greater than 100 µM in each case.
Turning to `CC(C)(C)OC(=O)NCCCCC(NC(=O)C(Cc1c[nH]c2ccccc12)NC(=O)OCC1c2ccccc2-c2ccccc21)C(=O)N1CCCC1C(=O)NCC(N)=O` (configuration not stated) (Fmoc-WK(Boc)PG-NH2; configuration not given here), the TGI in the assay on SN12C renal, in the assay with MDA-MB-435, in the assay on SNB-19 CNS, with COLO 205 colon, in the assay with CCRF-CEM leukemia and with LOX IMVI melanoma was greater than 100 µM in each case. Further, the TGI with SK-MEL-28 melanoma, in the assay on NCI/ADR-RES ovarian, with 786-0 renal, with OVCAR-5 ovarian and with SF-295 CNS was greater than 100 µM in each case.
In the case of `C[N+](C)(C)CC(=O)N/N=C/c1ccncc1`, the TGI in the assay with SN12C renal, in the assay on MDA-MB-435, in the assay with SNB-19 CNS, in the assay with COLO 205 colon, in the assay with CCRF-CEM leukemia and in the assay on LOX IMVI melanoma was greater than 100 µM in each case. Besides, the TGI in the assay on SK-MEL-28 melanoma, in the assay with NCI/ADR-RES ovarian, with 786-0 renal, with OVCAR-5 ovarian and in the assay with SF-295 CNS was greater than 100 µM in each case.
For the molecule `O=C(O)CCCc1ccc2ccccc2c1`, the TGI with SN12C renal, with MDA-MB-435, in the assay with SNB-19 CNS, in the assay with COLO 205 colon, with CCRF-CEM leukemia and in the assay with LOX IMVI melanoma was greater than 100 µM each time. Moreover, the TGI in the assay on SK-MEL-28 melanoma, in the assay on NCI/ADR-RES ovarian, with 786-0 renal, in the assay on OVCAR-5 ovarian and with SF-295 CNS was greater than 100 µM in each case.
Turning to `COC(=O)/C=C/C1(O)C=CC(=O)C=C1`, the TGI is 3.32 µM in the assay on SN12C renal; greater than 39.2 µM in the assay on MDA-MB-435; 18.1 µM with SNB-19 CNS; 23.4 µM with COLO 205 colon; 10.7 µM in the assay on CCRF-CEM leukemia; 4.74 µM with LOX IMVI melanoma. In addition, the TGI is greater than 19.8 µM in the assay on SK-MEL-28 melanoma; greater than 68.2 µM in the assay on NCI/ADR-RES ovarian; 5.36 µM in the assay with 786-0 renal; 12 µM in the assay on OVCAR-5 ovarian; 38.3 µM in the assay on SF-295 CNS.
Consider `COc1cc(-c2[o+]c3cc(O)cc(O)c3cc2O)cc(O)c1O`, for which the TGI in the assay on SN12C renal was greater than 100 µM; with MDA-MB-435, 38.3 µM; in the assay on SNB-19 CNS, greater than 100 µM; with COLO 205 colon, greater than 100 µM; in the assay on CCRF-CEM leukemia it was 75.9 µM; in the assay on LOX IMVI melanoma, greater than 100 µM. For the same molecule, the TGI in the assay on SK-MEL-28 melanoma, in the assay on NCI/ADR-RES ovarian, with 786-0 renal, with OVCAR-5 ovarian and in the assay on SF-295 CNS was greater than 100 µM throughout.
`O=C(C/C(=N/O)c1cc(-c2ccccc2)no1)c1ccccc1`: the TGI is greater than 100 µM with SN12C renal; greater than 100 µM in the assay on MDA-MB-435; 73.3 µM in the assay on SNB-19 CNS; greater than 100 µM with COLO 205 colon; greater than 100 µM in the assay on CCRF-CEM leukemia; greater than 100 µM in the assay with LOX IMVI melanoma. In addition, the TGI in the assay on SK-MEL-28 melanoma is greater than 100 µM; in the assay on NCI/ADR-RES ovarian it was 69.1 µM; with 786-0 renal it was 42.3 µM; in the assay with OVCAR-5 ovarian, greater than 100 µM; in the assay with SF-295 CNS it was greater than 100 µM.
As to `COc1ccc(/C=C2\CCC/C(=C\c3ccc(O)c(CN4CCCCC4)c3)C2=O)cc1`, the TGI was 36.5 µM with SN12C renal; 39.6 µM in the assay with MDA-MB-435; 70.2 µM with SNB-19 CNS; 46.9 µM in the assay on COLO 205 colon; greater than 100 µM in the assay with CCRF-CEM leukemia; 26.1 µM in the assay with LOX IMVI melanoma. Besides, the TGI came to 42.2 µM in the assay with SK-MEL-28 melanoma; 32.8 µM in the assay on NCI/ADR-RES ovarian; 19.3 µM in the assay on 786-0 renal; 61.3 µM in the assay on OVCAR-5 ovarian; 36.4 µM with SF-295 CNS.
